Results taken from patent US4045488A, “Aminophenyltetralin compounds” (Pfizer Inc., priority 1976, dated 1977).
Structures can show the parent of a compound that is named as a salt.

Assays:
[1] = system: spontaneous motor activity; test: spontaneous motor activity in mice (circular actophotometers, activity counts); format: in vivo, mouse; details: for hyperactive response: same conditions, 0.32-32 mg./kg. i.p.
Experimental: (§1) On the other hand, the activity of the compounds of the present invention, as psychomotor stimulants, is based on a variety of tests, including (1) a study of their motor activity in mice and (2) a measurement of their ability to influence the loss of avoidance behavior in rats trained on a non-discriminated (Sidman) avoidance schedule.
A total of seven mice was employed at each dose level tested (viz., at 0.32, 1.0, 3.2, 10 and 32 mg./kg., i.p., respectively) and these mice were separated one to an activity cage. After an initial 1/2 hour exposure period (for acclimation purposes), each animal in the cage was treated with a sample of the drug intraperitoneally and immediately thereafter returned to said cage, with activity counts every 1/2 hour being recorded from that point on.

[2] = psychotropic (antidepressant, psychomotor stimulant) activity and side effects of the compounds, general statements; format: in vivo; details: general statement; compounds and their hydrochloride acid addition salts
[3] = system: non-discriminated (Sidman) avoidance behavior; test: non-discriminated (Sidman) avoidance behavior in rats, response rates; format: in vivo, rat; details: 5 and 10 mg./kg. i.p.
Excerpt: as §1
Eight mature male rats were trained in Lehigh Valley automatic multiple-operant conditioning chambers to avoid a 2.0 mA electric shock that would last for 0.75 second, or terminate sooner if the rat lever became activated during the shock. In these tests, lever presses postponed the onset of shock for an initial period of 30 seconds, while only 10 seconds elapsed between shocks if no intervening response was elicited. The rats were run for a 40-minute control period before receiving the drug and then for approximately 2.5 hours after each treatment.

CN[C@@H]1CC[C@@H](c2ccccc2)c2ccccc21 (relative stereo) [Trans-isomer of Example IV, trans-dl-N-methyl-4-phenyl-1,2,3,4-tetrahydro-1-naphthylamine hydrochloride]
time course (duration) of effect ([1]; after 32 mg./kg.): especially long-lived

N[C@@H]1CC[C@@H](c2ccccc2)c2ccccc21 (relative stereo) [trans-dl-4-phenyl-1,2,3,4-tetrahydro-1-naphthylamine]
antidepressant activity [2]: markedly high degree of antidepressant activity

CN(C)[C@@H]1CC[C@@H](c2ccccc2)c2ccccc21 (relative stereo) [trans-dl-N,N-dimethyl-4-phenyl-1,2,3,4-tetrahydro-1-naphthylamine]
antidepressant activity [2]: markedly high degree of antidepressant activity

c1ccc([C@@H]2CC[C@@H](NC3CC3)c3ccccc32)cc1 (relative stereo) [trans-dl-N-cyclopropyl-4-phenyl-1,2,3,4-tetrahydro-1-naphthylamine]
antidepressant activity [2]: markedly high degree of antidepressant activity

CCN[C@@H]1CC[C@@H](c2ccccc2)c2ccccc21 (relative stereo) [trans-dl-N-ethyl-4-phenyl-1,2,3,4-tetrahydro-1-naphthylamine]
antidepressant activity [2]: markedly high degree of antidepressant activity

CC(C)N[C@@H]1CC[C@@H](c2ccccc2)c2ccccc21 (relative stereo) [trans-dl-N-isopropyl-4-phenyl-1,2,3,4-tetrahydro-1-naphthylamine]
antidepressant activity [2]: markedly high degree of antidepressant activity

CN[C@@H]1CC[C@@H](c2ccccc2)c2ccccc21 (relative stereo) [trans-dl-N-methyl-4-phenyl-1,2,3,4-tetrahydro-1-naphthylamine]
antidepressant activity [2]: markedly high degree of antidepressant activity

CN[C@@H]1CC[C@@H](c2ccccc2)c2ccccc21 [Trans-d-isomer of Example III, trans-d-N-Methyl-4-phenyl-1,2,3,4-tetrahydro-1-naphthylamine as the hydrochloride]
effect on activity counts compared with d-amphetamine sulfate and methylphenidate ([1]; 10 mg./kg. i.p. versus d-amphetamine sulfate 3.2 mg./kg. and methylphenidate 10 mg./kg.): more pronounced than that of d-amphetamine sulfate at 3.2 mg./kg. and surpassing even that of methylphenidate at 10 mg./kg.
effect on activity counts ([1]; 10 mg./kg. i.p., 30-60 minutes after treatment): markedly elevated the activity counts
time course (duration) of effect ([1]; 10 mg./kg. versus d-amphetamine sulfate 3.2 mg./kg.): even more prolonged in its effect than did that of d-amphetamine sulfate
duration of drug effect after administration [3]: approximately one and a half
start of drug effect [3]: ≤ 20 min
effect on response rates ([3]; in four out of eight rats): moderate to marked increase in response rates
increase of response rates over normal pre-drug control levels ([3]; in four out of eight rats): 2-6 times
increase of response rates over pre-drug control levels ([3]; in two other rats): about 1.5 times

CN[C@H]1CC[C@H](c2ccccc2)c2ccccc21 [Trans-l-isomer of Example III, trans-l-N-methyl-4-phenyl-1,2,3,4-tetrahydro-1-naphthylamine hydrochloride]
stimulant effect ([1]; tested at 10 and 32 mg./kg. i.p.): little evidence of a stimulant effect

CNCCCN1c2ccccc2CCc2ccccc21 [desmethylimipramine, reference compound]
hyperactive response [1]: failed to elicit any hyperactive response whatsoever

CNCCCC1c2ccccc2C=Cc2ccccc21 [protriptlyine, reference compound]
hyperactive response [1]: failed to elicit any hyperactive response whatsoever

CN[C@@H]1CC[C@@H](c2ccccc2)c2ccccc21 [trans-d-N-methyl-4-phenyl-1,2,3,4-tetrahydro-1-naphthylamine]
antidepressant activity [2]: markedly high degree of antidepressant activity
